Patent US6054435A, “6-O-substituted macrolides having antibacterial activity” (priority 1999, dated 2000)
Values after ≈ are worked out from the molar mass of the structure shown.

Columns and labels:
Assay in all cases: in vitro antibacterial activity (MIC), agar dilution
Assay type in all cases: cell-based
Candida albicans CCH 442 = details: organism code TT; BHI agar, 35-37° C., 20 to 24 hours; unit assumed
Procedure, shortened: (§1)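 Endpoint: lowest concentration with no growth, slight haze or sparsely isolated colonies at the inoculum spot, judged against a compound-free BHI control. Strains were replicator-inoculated at 1:100 (1:10 for Streptococcus and other slow growers).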

[1] = test system: Enterococcus faecium ATCC 8043; details: organism code II; BHI agar, 35-37° C., 20 to 24 hours; unit assumed
Procedure, shortened: as §1

Escherichia coli DC-2 = details: organism code SS; BHI agar, 35-37° C., 20 to 24 hours; unit assumed
Procedure, shortened: as §1

Escherichia coli JUHL = details: organism code QQ; BHI agar, 35-37° C., 20 to 24 hours; unit assumed
Procedure, shortened: as §1

Escherichia coli SS = details: organism code RR; BHI agar, 35-37° C., 20 to 24 hours; unit assumed
Procedure, shortened: as §1

[2] = test system: Haemophilis Influenzae DILL AMP R; details: organism code WW; BHI agar, 35-37° C., 20 to 24 hours; unit assumed
Procedure, shortened: as §1

[3] = test system: Micrococcus luteus ATCC 4698; details: organism code PP; BHI agar, 35-37° C., 20 to 24 hours; unit assumed
Procedure, shortened: (§2)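 Test compound serially diluted in Brain Heart Infusion agar across twelve plates; inocula of 1:100 dilution (1:10 for slow growers such as Streptococcus) applied by Steers replicator. MIC taken visually as lowest concentration giving no growth, slight haze or sparse isolated colonies versus drug-free growth control.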

[4] = test system: Micrococcus luteus ATCC 9341; details: organism code OO; BHI agar, 35-37° C., 20 to 24 hours; unit assumed
Procedure, shortened: as §2

[5] = test system: Mycobacterium smegmatis ATCC 114; details: organism code UU; BHI agar, 35-37° C., 20 to 24 hours; unit assumed
Procedure, shortened: as §1

[6] = test system: Nocardia Asteroides ATCC9970; details: organism code VV; BHI agar, 35-37° C., 20 to 24 hours; unit assumed
Procedure, shortened: as §1

[7] = test system: Staphylococcus aureus 1775; details: organism code GG; BHI agar, 35-37° C., 20 to 24 hours; unit assumed
Procedure, shortened: as §1

[8] = test system: Staphylococcus aureus A-5278; details: organism code CC; BHI agar, 35-37° C., 20 to 24 hours; unit assumed
Procedure, shortened: as §1

[9] = test system: Staphylococcus aureus A5177; details: organism code BB; BHI agar, 35-37° C., 20 to 24 hours; unit assumed
Procedure, shortened: as §1

[10] = test system: Staphylococcus aureus ATCC 6538P; details: organism code AA; BHI agar, 35-37° C., 20 to 24 hours; unit assumed
Procedure, shortened: as §1

[11] = test system: Staphylococcus aureus CMX 553; details: organism code FF; BHI agar, 35-37° C., 20 to 24 hours; unit assumed
Procedure, shortened: as §1

[12] = test system: Staphylococcus aureus CMX 642A; details: organism code DD; BHI agar, 35-37° C., 20 to 24 hours; unit assumed
Procedure, shortened: as §1

[13] = test system: Staphylococcus aureus NCTC10649M; details: organism code EE; BHI agar, 35-37° C., 20 to 24 hours; unit assumed
Procedure, shortened: as §1

[14] = test system: Staphylococcus epidermidis 3519; details: organism code HH; BHI agar, 35-37° C., 20 to 24 hours; unit assumed
Procedure, shortened: as §1

[15] = test system: Streptococcus Pneumonia 5649; details: organism code ZZA; BHI agar, 35-37° C., 20 to 24 hours; unit assumed
Procedure, shortened: as §1

[16] = test system: Streptococcus Pneumonia 5979; details: organism code ZZ; BHI agar, 35-37° C., 20 to 24 hours; unit assumed
Procedure, shortened: as §1

[17] = test system: Streptococcus Pneumonia ATCC6303; details: organism code XX; BHI agar, 35-37° C., 20 to 24 hours; unit assumed
Procedure, shortened: as §1

[18] = test system: Streptococcus Pneumonia GYR 1171; details: organism code YY; BHI agar, 35-37° C., 20 to 24 hours; unit assumed
Procedure, shortened: as §1

[19] = test system: Streptococcus agalactiae CMX 508; details: organism code KK; BHI agar, 35-37° C., 20 to 24 hours; unit assumed
Procedure, shortened: as §1

[20] = test system: Streptococcus bovis A-5169; details: organism code JJ; BHI agar, 35-37° C., 20 to 24 hours; unit assumed
Procedure, shortened: as §1

[21] = test system: Streptococcus pyogenes 930; details: organism code MM; BHI agar, 35-37° C., 20 to 24 hours; unit assumed
Procedure, shortened: as §1

[22] = test system: Streptococcus pyogenes EES61; details: organism code LL; BHI agar, 35-37° C., 20 to 24 hours; unit assumed
Procedure, shortened: as §1

[23] = test system: Streptococcus pyogenes PIU 2548; details: organism code NN; BHI agar, 35-37° C., 20 to 24 hours; unit assumed
Procedure, shortened: as §1

## CC[C@H]1OC(=O)[C@H](C)C(=O)[C@H](C)[C@@H](O[C@@H]2O[C@H](C)C[C@H](N(C)C)[C@H]2O)[C@](C)(OC/C=C/c2cncc(-c3ncccn3)c2)C[C@@H](C)C(=O)[C@H](C)[C@H]2NC(=O)O[C@@]21C [Example 46]
Candida albicans CCH 442
  MIC: > 100 µg/mL
[1]
  MIC: 0.05 µg/mL (≈ 0.063 µM)
Escherichia coli DC-2
  MIC: 100 µg/mL (≈ 126 µM)
Escherichia coli JUHL
  MIC: 50 µg/mL (≈ 63 µM)
Escherichia coli SS
  MIC: 0.39 µg/mL (≈ 0.491 µM)
[2]
  MIC: 4 µg/mL (≈ 5.04 µM)
[3]
  MIC: 0.2 µg/mL (≈ 0.252 µM)
[4]
  MIC: 0.05 µg/mL (≈ 0.063 µM)
[5]
  MIC: 6.2 µg/mL (≈ 7.81 µM)
[6]
  MIC: 0.05 µg/mL (≈ 0.063 µM)
[7]
  MIC: > 100 µg/mL
[8]
  MIC: > 100 µg/mL
[9]
  MIC: 0.2 µg/mL (≈ 0.252 µM)
[10]
  MIC: 0.1 µg/mL (≈ 0.126 µM)
[11]
  MIC: 0.2 µg/mL (≈ 0.252 µM)
[12]
  MIC: 0.2 µg/mL (≈ 0.252 µM)
[13]
  MIC: 0.2 µg/mL (≈ 0.252 µM)
[14]
  MIC: 0.1 µg/mL (≈ 0.126 µM)
[15]
  MIC: 0.5 µg/mL (≈ 0.63 µM)
[16]
  MIC: 128 µg/mL (≈ 161 µM)
[17]
  MIC: 0.03 µg/mL (≈ 0.0378 µM)
[18]
  MIC: 0.03 µg/mL (≈ 0.0378 µM)
[19]
  MIC: 0.02 µg/mL (≈ 0.0252 µM)
[20]
  MIC: 0.01 µg/mL (≈ 0.0126 µM)
[21]
  MIC: 12.5 µg/mL (≈ 15.7 µM)
[22]
  MIC: 0.02 µg/mL (≈ 0.0252 µM)
[23]
  MIC: 0.2 µg/mL (≈ 0.252 µM)
